{"source": "patent US8202856B2", "about": "(Merck Serono SA, priority 2007, dated 2012)", "note": "Structures can show the parent of a compound that is named as a salt."}
{"target": "S1P1 receptor (Homo sapiens, UniProt P21453)", "sequence (P21453 whole entry)": "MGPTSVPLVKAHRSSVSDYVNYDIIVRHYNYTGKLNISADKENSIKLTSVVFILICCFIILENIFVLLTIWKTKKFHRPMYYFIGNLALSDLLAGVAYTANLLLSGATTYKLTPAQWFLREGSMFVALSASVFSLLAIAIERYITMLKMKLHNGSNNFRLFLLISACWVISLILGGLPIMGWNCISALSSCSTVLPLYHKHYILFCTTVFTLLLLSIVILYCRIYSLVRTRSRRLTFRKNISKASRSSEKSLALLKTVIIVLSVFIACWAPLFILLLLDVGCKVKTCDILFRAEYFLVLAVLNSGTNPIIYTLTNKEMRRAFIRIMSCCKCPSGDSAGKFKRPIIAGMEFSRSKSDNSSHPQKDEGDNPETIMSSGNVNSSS", "assay": "35S-GTPγS binding, membranes from CHO cells expressing S1P1", "type": "biochemical", "conditions": "CHO cell membranes expressing S1P1", "procedure": "Receptor binding assay: Membranes were prepared from CHO cells expressing S1P1 or S1P3 for use in ligand and 35S-GTPTS binding studies. Cells were suspended in 50 mM TRIS, pH 7.4, 2 mM EDTA, 250 mM Sucrose (buffer A) and 1× Complete protease inhibitor cocktail (Roche), and disrupted at 4° C. by nitrogen decompression using a cell disruption bomb (Parr Instrument). Following centrifugation at 1000 RPM for 10 min at 4° C., the supernatant was suspended in buffer A and centrifuged again at 19000 RPM for 60 min at 4° C. The pellet was then suspended in 10 mM HEPES, pH 7.4, 1 mM EDTA, 250 mM Sucrose (Buffer B), and 1× Complete EDTA-free protease inhibitor cocktail and homogenized using a potter. Membranes were flash frozen in liquid nitrogen and stored at −80° C. [33P]sphingosine 1-phosphate (3000 Ci/mmol; American Radiolabeled Chemicals, Inc.) was added to test compounds in DMSO. Membranes and WGA SPA beads (GE Healthcare) were added to give a final volume of 100 μl in 96-well plates with assay concentrations of […] [33P]sphingosine 1-phosphate (respectively for S1P1 or S1P3), 50 mM HEPES, pH 7.5, 5 mM MgCl2, 100 mM NaCl, 0.4% fatty acid-free BSA, 1-5 μg/well of proteins and 100 μg/well of WGA SPA beads. Binding was performed for 60 min at room temperature on a shaker and bound radioactivity was measured on a PerkinElmer 1450 MicroBeta counter. Specific binding was calculated by subtracting remaining radioactivity in the presence of 1000-fold excess of unlabeled S1P. Binding data were analyzed using the GraphPad Prism program.\nMeasurements of ^35S-GTPγS Binding: Membranes (1 to 10 μg protein) prepared as described above, were incubated in 96-well Scintiplates (PerkinElmer) with test compounds diluted in DMSO, in 180 μl of 20 mM HEPES, pH 7.4, 10 mM MgCl2, 2 μg/well Saponin, 0.2% fatty acid free BSA (Assay buffer), 140 mM NaCl and 1.7 μM GDP. The assay was initiated with the addition of 20 μl of 1.5 nM [35S]-GTPγS (1100 Ci/mmol; GE Healthcare) in assay buffer. After 60 min incubation at 30° C. on a shaker, plates were centrifuged for 10 min at 2000 RPM. Supernatant was discarded and membrane bound radioactivity was measured on a PerkinElmer 1450 MicroBeta counter. Triplicate samples were averaged and expressed as response relative to S1P activation in absence of compound (n=2).", "units": {"EC50": "nM"}}
{"smiles": "Fc1ccccc1-n1nnc(-c2nc(-c3cccc(CN4CCC4)c3)no2)c1-c1ccncc1", "note": "[Example 148, 4-[4-{3-[3-(azetidin-1-ylmethyl)phenyl]-1,2,4-oxadiazol-5-yl}-1-(2-fluorophenyl)-1H-1,2,3-triazol-5-yl]pyridine formate]", "EC50": 508}
{"smiles": "CS(=O)(=O)c1cccc(-c2noc(-c3nnn(-c4ccccc4F)c3-c3ccccn3)n2)c1", "note": "[Example 84, 2-(1-(2-fluorophenyl)-4-{3-[3-(methylsulfonyl)phenyl]-1,2,4-oxadiazol-5-yl}-1H-1,2,3-triazol-5-yl)pyridine]", "EC50": 418}
{"smiles": "Cc1c(-c2nc(-c3cc(F)ccc3F)no2)nnn1-c1ccccc1Br", "note": "[Example 3, 5-[1-(2-Bromophenyl)-5-methyl-1H-1,2,3-triazole-4-yl]-3-(2,5-difluorophenyl)-1,2,4-oxadiazole]", "EC50": 2720}
{"smiles": "O=C(O)c1ccc(-c2noc(-c3nnn(-c4ccccc4F)c3-c3ccccc3)n2)cc1F", "note": "[Example 23, 2-Fluoro-4-{5-[1-(2-fluorophenyl)-5-phenyl-1H-1,2,3-triazole-4-yl]-1,2,4-oxadiazole-3-yl}benzoic acid]", "EC50": 646}
{"smiles": "Fc1ccccc1-n1nnc(-c2nc(-c3ccc(Cn4cccn4)cc3)no2)c1-c1ccncc1", "note": "[Example 171, 4-(1-(2-fluorophenyl)-4-{3-[4-(1H-pyrazol-1-ylmethyl)phenyl]-1,2,4-oxadiazol-5-yl}-1H-1,2,3-triazol-5-yl)pyridine]", "EC50": 11}
{"smiles": "OCCNCc1cccc(-c2noc(-c3nnn(-c4ccccc4F)c3-c3ccncc3)n2)c1", "note": "[Example 132, 2-[(3-{5-[1(2-fluorophenyl)-5-pyridin-4-yl-1H-1,2,3-triazol-4-yl]-1,2,4-oxadiazol-3-yl}benzyl)amino]ethanol formate]", "EC50": 383}
{"smiles": "CNCc1cccc(-c2noc(-c3nnn(-c4ccccc4F)c3-c3ccncc3)n2)c1", "note": "[Example 133, 1-(3-{5-[1-(2-fluorophenyl)-5-pyridin-4-yl-1H-1,2,3-triazol-4-yl]-1,2,4-oxadiazol-3-yl}phenyl)-N-methylmethanamine formate]", "EC50": 646}
{"smiles": "O=C(O)C1(NCc2ccc(-c3noc(-c4nnn(-c5ccccc5F)c4-c4ccncc4)n3)cc2)CC1", "note": "[Example 162, 1-(4-(5-(1-(2-fluorophenyl)-5-(pyridin-4-yl)-1H-1,2,3-triazol-4-yl)-1,2,4-oxadiazol-3-yl)benzylamino)cyclopropanecarboxylic acid]", "EC50": 211}
{"smiles": "Fc1ccccc1-n1nnc(-c2nc(-c3ccccc3)no2)c1-c1ccncc1", "note": "[Example 95, 4-[1-(2-fluorophenyl)-4-(3-phenyl-1,2,4-oxadiazol-5-yl)-1H-1,2,3-triazol-5-yl]pyridine]", "EC50": 13}
{"smiles": "COCCN(C)Cc1ccc(-c2noc(-c3nnn(-c4ccccc4F)c3-c3ccncc3)n2)cc1", "note": "[Example 166, N-(4-(5-(1-(2-fluorophenyl)-5-(pyridin-4-yl)-1H-1,2,3-triazol-4-yl)-1,2,4-oxadiazol-3-yl)benzyl)-2-methoxy-N-methylethanamine]", "EC50": 218}
{"smiles": "OCCc1ccc(-c2noc(-c3nnn(-c4ccccc4F)c3-c3ccncc3)n2)cc1", "note": "[Example 150, 2-(4-{5-[1(2-fluorophenyl)-5-pyridin-4-yl-1H-1,2,3-triazol-4-yl]-1,2,4-oxadiazol-3-yl}phenyl)ethanol]", "EC50": 43}
{"smiles": "COc1ccc(-c2noc(-c3nnn(-c4ccccc4F)c3-c3ccccn3)n2)cc1", "note": "[Example 57, 2-{1-(2-fluorophenyl)-4-[3-(4-methoxyphenyl)-1,2,4-oxadiazol-5-yl]-1H-1,2,3-triazol-5-yl}pyridine]", "EC50": 959}
{"smiles": "Fc1ccccc1-n1nnc(-c2nc(-c3ccc(CN4CCC(F)(F)CC4)cc3)no2)c1-c1ccncc1", "note": "[Example 161]", "EC50": 545}
{"smiles": "Fc1ccccc1-c1noc(-c2nnn(-c3ccccc3F)c2C2CC2)n1", "note": "[Example 85, 5-[5-cyclopropyl-1-(2-fluorophenyl)-1H-1,2,3-triazol-4-yl]-3-(2-fluorophenyl)-1,2,4-oxadiazole]", "EC50": 451}
{"smiles": "Fc1ccccc1-n1nnc(-c2nc(-c3ccco3)no2)c1-c1ccncc1", "note": "[Example 89, 4-{1-(2-fluorophenyl)-4-[3-(2-furyl)-1,2,4-oxadiazol-5-yl]-1H-1,2,3-triazol-5-yl}pyridine]", "EC50": 1030}
{"smiles": "Fc1ccc(Br)c(-c2noc(-c3nnn(-c4ccccc4F)c3-c3ccncc3)n2)c1", "note": "[Example 149, 4-[4-[3-(2-bromo-5-fluorophenyl)-1,2,4-oxadiazol-5-yl]-1-(2-fluorophenyl)-1H-1,2,3-triazol-5-yl]pyridine]", "EC50": 39}
{"smiles": "Oc1cccc(-c2noc(-c3nnn(-c4ccccc4F)c3-c3ccncc3)n2)c1", "note": "[Example 124, 3-{5-[1-(2-fluorophenyl)-5-pyridin-4-yl-1H-1,2,3-triazol-4-yl]-1,2,4-oxadiazol-3-yl}phenol]", "EC50": 23}
{"smiles": "CN(C)Cc1cccc(-c2noc(-c3nnn(-c4ccccc4F)c3-c3ccncc3)n2)c1", "note": "[Example 94, 1-(3-{5-[1-(2-fluorophenyl)-5-pyridin-4-yl-1H-1,2,3-triazol-4-yl]-1,2,4-oxadiazol-3-yl}phenyl)-N,N-dimethylmethanamine]", "EC50": 226}
{"smiles": "CC(C)(NCc1ccc(-c2noc(-c3nnn(-c4ccccc4F)c3-c3ccncc3)n2)cc1)C(=O)O", "note": "[Example 174, N-(4-{5-[1-(2-fluorophenyl)-5-pyridin-4-yl-1H-1,2,3-triazol-4-yl]-1,2,4-oxadiazol-3-yl}benzyl)-2-methylalanine]", "EC50": 162}
{"smiles": "CS(=O)(=O)NC1CCN(Cc2ccc(-c3noc(-c4nnn(-c5ccccc5F)c4-c4ccncc4)n3)cc2)CC1", "note": "[Example 146, N-[1-(4-{5-[1-(2-fluorophenyl)-5-pyridin-4-yl-1H-1,2,3-triazol-4-yl]-1,2,4-oxadiazol-3-yl}benzyl)piperidin-4-yl]methanesulfonamide]", "EC50": 360}
{"smiles": "NC(=O)c1ccc(-c2noc(-c3nnn(-c4ccccc4F)c3-c3ccncc3)n2)cc1", "note": "[Example 73, 4-{5-[1-(2-fluorophenyl)-5-pyridin-4-yl-1H-1,2,3-triazol-4-yl]-1,2,4-oxadiazol-3-yl}benzamide]", "EC50": 49}
{"smiles": "Fc1ccccc1-n1nnc(-c2nc(-c3cccc(CN4CCOCC4)c3)no2)c1-c1ccncc1", "note": "[Example 60, 4-(3-{5-[1-(2-fluorophenyl)-5-pyridin-4-yl-1H-1,2,3-triazol-4-yl]-1,2,4-oxadiazol-3-yl}benzyl)morpholine]", "EC50": 620}
{"smiles": "COCc1c(-c2nc(-c3ccc(Cn4cccn4)cc3)no2)nnn1-c1ccccc1F", "note": "[Example 173, 5-[1-(2-fluorophenyl)-5-(methoxymethyl)-1H-1,2,3-triazol-4-yl]-3-[4-(1H-pyrazol-1-ylmethyl)phenyl]-1,2,4-oxadiazole]", "EC50": 240}
{"smiles": "OCc1cccc(-c2noc(-c3nnn(-c4ccccc4F)c3-c3ccncc3)n2)c1", "note": "[Example 111, (3-{5-[1-(2-fluorophenyl)-5-pyridin-4-yl-1H-1,2,3-triazol-4-yl]-1,2,4-oxadiazol-3-yl}phenyl)methanol]", "EC50": 54}
{"smiles": "COCCNCc1cccc(-c2noc(-c3nnn(-c4ccccc4F)c3-c3ccncc3)n2)c1", "note": "[Example 147, N-(3-{5-[1-(2-fluorophenyl)-5-pyridin-4-yl-1H-1,2,3-triazol-4-yl]-1,2,4-oxadiazol-3-yl}benzyl)-2-methoxyethanamine]", "EC50": 577}
{"smiles": "Fc1ccc(F)c(-c2noc(-c3nnn(-c4ccccc4F)c3C3CCCO3)n2)c1", "note": "(centres unmarked) [Example 71, 3-(2,5-difluorophenyl)-5-[1-(2-fluorophenyl)-5-(tetrahydrofuran-2-yl)-1H-1,2,3-triazol-4-yl]-1,2,4-oxadiazole]", "EC50": 176}
